Experimental data: patent US20240246941A1, “SUBSTITUTED 4-(3-AMINOPROP-1-YL)AMINOQUINOLINE ANALOGS AS MODULATORS OF MELANOMA-ASSOCIATED ANTIGEN 11 UBIQUITIN LIGASE” (ST. JUDE CHILDREN'S RESEARCH HOSPITAL, INC., priority 2020, published 2024)

Biological target: MAGE-A11:PCF11 (Homo sapiens (Human), UniProt P43364)
Test: TR-FRET single point screening at 15 μM
Type: binding
Design: unit not given here
Source text: TR-FRET Assays and High-throughput Screen. Terbium-anti-GST antibody, 1 M Tris pH 7.5 1 M MgCl2 and 1 M DTT were purchased from Invitrogen (Carlsbad, CA), BSA was purchased from Sigma (St. Louis, MO). Dimethyl sulfoxide (DMSO) was purchased from Fisher Scientific (Pittsburgh, PA). Black 384-well low volume plates and 384-well polypropylene compound plates were purchased from Corning Incorporated (Tewksbury, MA). The St. Jude FDA drug and Bioactive library (11,293 chemicals), Drug-like library (10,073 chemicals) and Lead-like library (10,041 chemicals) were custom assembled and purchased from commercial sources including Sigma, Microsource (Gaylordsville, CT), selleckchem (Houston, TX), ChemDiv (San Diego, CA), ChemBridge (San Diego, CA), Enamine (Monmouth Jct., NJ), and Life Chemicals (Niagara-on-the-Lake, ON, Canada). They were arrayed (10 mM in DMSO) in 384-well polypropylene compound plates with columns 1, 2, 13 and 14 empty which were reserved for controls.
The TR-FRET assay buffer with a formula of 50 mM Tris pH 7.5, 20 mM MgCl2, 0.1 mg/ml BSA and 1 mM DTT was freshly prepared before each experiment. All TR-FRET assays were performed in black 384-well plates with 20 μl/well assay volume in the TR-FRET assay buffer at room temperature (approximately 25° C.). All peptides or compounds were solubilized in DMSO. To test the competitive activity of peptides or compounds against the interaction between GST-MAGEA11 MHD and FAM-PCF11_4 peptide, 10 μl/well peptide or compound at specified concentration was dispensed into a black 384-well low volume plate, followed by 5 μl/well FAM-PCF11_4 (800 nM), 5 μl/well Tb-anti-GST (20 nM) and GST-MAGEA11 MHD (20 nM). The assay components in each well was then mixed by shaking the plate on an IKA MTS 2/4 digital microtiter plate shaker (IKA Works; Wilmington, NC, USA) at 900 RPM for 1 minute. The plate was further centrifuged in an Eppendorf 5810 centrifuge with an A-4-62 swing-bucket rotor (Eppendorf AG, Hamburg, Germany) at 201 g (1000 rpm) for 30 seconds. The plate was then incubated for 90 min with a lid to avoid light exposure to the assay components. After incubation, the fluorescent emission signals at 520 nm and 490 nm channels of individual wells were measured with a PHERAstar FS plate reader (BMG Labtech; Durham, NC, USA) by using a 340 nm excitation filter, 100 μs delay time, and 200 μs integration time. The TR-FRET fluorescence emission ratio (TR-FRET signal) for each well was presented as 10 000×520 nm/490 nm, which was used directly for curve fitting, or further converted to % Inhibition based on the respective positive and negative controls. The graphic software GraphPad Prism 4.81 (GraphPad Software; La Jolla, CA, USA) was used to generate curves and derive IC50 values of tested peptides or compounds, if applicable.
TR-FRET screen for identifying MAGEA11 small molecule inhibitors was performed as follows. The primary one-concentration screening and subsequent 10 or 20-concentration dose response tests were accomplished with an automated High Throughput Screening system (HighRes Biosolutions, Beverly, MA)^30. In the primary screening, 15 μl/well FAM-PCF11_4 (267 nM) was first dispensed with a Multidrop Combi Reagent Dispenser (Thermo Fisher Scientific, Waltham, MA) to black 384-well low volume assay plates. The plates were spun down with a Velocity11 VSpin microplate centrifuge (Agilent Technologies, Santa Clara, CA). 30 nl/well of 10 mM compound/DMSO solutions, or DMSO alone, were transferred from compound plates (the St. Jude FDA drug and bioactive library, Drug-like library and Lead-like library) or a control plate to the assay plates with a Pin Tool (V&P Scientific, San Diego, CA). The compounds were arrayed in columns 3 to 12 and columns 15 to 24 of compound plates. The controls were arrayed in columns 1, 2, 13 and 14 of a compound plate. […]

[1] = single point TR-FRET screening at 15 μM against MAGE-A11:PCF11
[2] = single point TR-FRET screening of quinoline compounds against MAGE-A11:PCF11, 15 μM

Chain of MAGE-A11:PCF11 (P43364 218-429): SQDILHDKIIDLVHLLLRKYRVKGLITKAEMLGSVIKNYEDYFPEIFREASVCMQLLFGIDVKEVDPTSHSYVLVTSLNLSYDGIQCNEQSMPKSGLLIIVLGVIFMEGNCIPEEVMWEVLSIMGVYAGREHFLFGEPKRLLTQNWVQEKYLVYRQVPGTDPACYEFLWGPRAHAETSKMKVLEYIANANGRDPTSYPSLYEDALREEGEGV

SMILES	TR-FRET signal [1]	TR-FRET signal [2]
COc1ccc(N2CCN(c3c(S(=O)(=O)c4ccccc4)cnc4ccc(Cl)cc34)CC2)cc1 [SJ000083983]	−17.94	
CN(C)c1cc(NC(=O)CN2CCOCC2)c2ccccc2n1 [SJ000111677]	4.988	
CN(C)c1cc(NC(=O)CNC(C)(C)CC(C)(C)C)c2ccccc2n1 [SJ000111678]	10.62	
Cc1cc(NC(=O)CN2CCN(C(=O)c3ccco3)CC2)c2ccccc2n1 [SJ000111679]	−1.072	
Cc1cc(NC(=O)CN2CCN(C)CC2)c2ccccc2n1 [SJ000111680]	4.647	
CCc1nc2ccccc2c(NC(=O)CN2CCN(c3ccccc3)CC2)c1C [SJ000111681]	6.894	
CCc1nc2ccccc2c(NC(=O)CN2CCCCC2)c1C [SJ000111682]	1.593	
O=C(CN1CCN(C(=O)c2ccccc2)CC1)Nc1c2c(nc3ccccc13)N(c1cccc(Cl)c1)CC2 [SJ000111683]	−264.3	
O=C(CN1CCN(C(c2ccccc2)c2ccccc2)CC1)Nc1c2c(nc3ccccc13)CCC2 [SJ000111684]	11.85	
COc1ccc(-c2csc(N3CCN(c4cc(C)nc5ccccc45)CC3)n2)cc1OC [SJ000114009]	−53.43	
Cc1ccc(S(=O)(=O)c2cnc3ccccc3c2N2CCN(c3ccccc3)CC2)cc1 [SJ000117047]	−6.567	
COc1ccc2ncc(S(=O)(=O)c3ccc(C)cc3)c(N3CCN(c4ccccc4)CC3)c2c1 [SJ000117048]	−85.57	
CCOc1ccc2ncc(S(=O)(=O)c3ccc(C)cc3)c(N3CCN(c4ccccc4)CC3)c2c1 [SJ000117049]	−45.32	
Cc1ccc(S(=O)(=O)c2cnc3ccc(Cl)cc3c2N2CCN(c3ccccc3)CC2)cc1 [SJ000117050]	−3.321	
COc1ccc2ncc(S(=O)(=O)c3ccc(C)c(C)c3)c(N3CCN(c4ccccc4)CC3)c2c1 [SJ000117051]	−52.48	
Cc1ccc(S(=O)(=O)c2cnc3ccc(F)cc3c2N2CCN(c3ccccc3)CC2)cc1C [SJ000117052]	−16.9	
CCc1ccc(S(=O)(=O)c2cnc3ccccc3c2N2CCN(c3ccccc3)CC2)cc1 [SJ000117053]	−21.21	
CCOc1ccc2ncc(S(=O)(=O)c3ccc(Cl)cc3)c(N3CCN(c4ccccc4)CC3)c2c1 [SJ000117054]	−446.9	
O=S(=O)(c1ccc(Cl)cc1)c1cnc2ccc(F)cc2c1N1CCN(c2ccccc2)CC1 [SJ000117055]	2.112	
CCc1ccc2ncc(S(=O)(=O)c3ccc(OC)cc3)c(N3CCN(c4ccccc4)CC3)c2c1 [SJ000117056]	−2.791	
Cc1ccc(S(=O)(=O)c2cnc3ccccc3c2N2CCN(c3ccc(F)cc3)CC2)cc1 [SJ000117057]	−20.61	
Cc1ccc(S(=O)(=O)c2cnc3ccc(C)cc3c2N2CCN(c3ccc(F)cc3)CC2)cc1 [SJ000117058]	−4.068	
COc1ccc2ncc(S(=O)(=O)c3ccc(C)cc3)c(N3CCN(c4ccc(F)cc4)CC3)c2c1 [SJ000117059]	−118.5	
CCOc1ccc2ncc(S(=O)(=O)c3ccc(C)cc3)c(N3CCN(c4ccc(F)cc4)CC3)c2c1 [SJ000117060]	−11.07	
Cc1ccc(S(=O)(=O)c2cnc3ccc(F)cc3c2N2CCN(c3ccc(F)cc3)CC2)cc1 [SJ000117061]	−70.5	
Cc1ccc(S(=O)(=O)c2cnc3ccccc3c2N2CCN(c3ccc(F)cc3)CC2)cc1C [SJ000117062]	−54.86	
O=S(=O)(c1ccc(F)cc1)c1cnc2ccc(Cl)cc2c1N1CCN(c2ccc(F)cc2)CC1 [SJ000117063]	−4.205	

SMILES	TR-FRET signal [1]	TR-FRET signal [2]
CCc1ccc2ncc(S(=O)(=O)c3ccc(OC)cc3)c(N3CCN(c4ccc(F)cc4)CC3)c2c1 [SJ000117064]	−9.084	
COc1ccccc1N1CCN(c2c(S(=O)(=O)c3ccc(C)cc3)cnc3ccccc23)CC1 [SJ000117065]	−8.687	
COc1ccccc1N1CCN(c2c(S(=O)(=O)c3ccc(C)cc3)cnc3ccc(C)cc23)CC1 [SJ000117066]	−92.89	
COc1ccccc1N1CCN(c2c(S(=O)(=O)c3ccc(C)cc3)cnc3ccc(Cl)cc23)CC1 [SJ000117067]	−12.86	
COc1ccccc1N1CCN(c2c(S(=O)(=O)c3ccc(C)c(C)c3)cnc3ccccc23)CC1 [SJ000117068]	−5.706	
CCc1ccc(S(=O)(=O)c2cnc3ccccc3c2N2CCN(c3ccccc3OC)CC2)cc1 [SJ000117069]	−47.44	
COc1ccccc1N1CCN(c2c(S(=O)(=O)c3ccc(Cl)cc3)cnc3ccc(C)cc23)CC1 [SJ000117070]	−15.37	
COc1ccc(N2CCN(c3c(S(=O)(=O)c4ccccc4)cnc4ccc(OC)cc34)CC2)cc1 [SJ000117071]	−32.67	
COc1ccc(N2CCN(c3c(S(=O)(=O)c4ccc(C)cc4)cnc4ccc(Cl)cc34)CC2)cc1 [SJ000117072]	−5.838	
COc1ccc(N2CCN(c3c(S(=O)(=O)c4ccc(C)c(C)c4)cnc4ccc(F)cc34)CC2)cc1 [SJ000117073]	−13.26	
CCc1ccc(S(=O)(=O)c2cnc3ccccc3c2N2CCN(c3ccc(OC)cc3)CC2)cc1 [SJ000117074]	−11.2	
COc1ccc(N2CCN(c3c(S(=O)(=O)c4ccc(Cl)cc4)cnc4ccc(C)cc34)CC2)cc1 [SJ000117075]	−3.122	
COc1ccc2ncc(S(=O)(=O)c3ccc(C)cc3)c(N3CCN(c4ccccc4F)CC3)c2c1 [SJ000117076]	6.02	
CCOc1ccc2ncc(S(=O)(=O)c3ccc(C)cc3)c(N3CCN(c4ccccc4F)CC3)c2c1 [SJ000117077]	5.159	
COc1ccc2ncc(S(=O)(=O)c3ccc(C)c(C)c3)c(N3CCN(c4ccccc4F)CC3)c2c1 [SJ000117078]	−8.289	
CCc1ccc(S(=O)(=O)c2cnc3ccccc3c2N2CCN(c3ccccc3F)CC2)cc1 [SJ000117079]	−56.58	
Cc1ccc(S(=O)(=O)c2cnc3ccccc3c2N2CCN(c3ccc(C)cc3C)CC2)cc1 [SJ000117080]	3.172	
Cc1cccc(N2CCN(c3c(S(=O)(=O)c4ccccc4)cnc4ccccc34)CC2)c1C [SJ000117081]	−13.13	
COc1ccc2ncc(S(=O)(=O)c3ccccc3)c(N3CCN(c4cccc(C)c4C)CC3)c2c1 [SJ000117082]	−241.8	
Cc1ccc(C)c(N2CCN(c3c(S(=O)(=O)c4ccccc4)cnc4ccc(F)cc34)CC2)c1 [SJ000117083]	−15.38	
Cc1ccc(S(=O)(=O)c2cnc3ccccc3c2N2CCN(c3cc(C)ccc3C)CC2)cc1 [SJ000117084]	2.443	
COc1ccc2ncc(S(=O)(=O)c3ccc(C)cc3)c(N3CCN(Cc4ccccc4)CC3)c2c1 [SJ000117085]	−82.22	
CCc1ccc(S(=O)(=O)c2cnc3ccccc3c2N2CCN(Cc3ccccc3)CC2)cc1 [SJ000117086]	−55.26	
CCOC(=O)c1cnc2ccc(OC)cc2c1NCCCN1CCOCC1 [SJ000127046]		2.945
CCOC(=O)c1cnc2ccc(C(=O)OC)cc2c1NCCN1CCOCC1 [SJ000127079]	−7.813	
CCOC(=O)c1cnc2c(C)cc(Cl)cc2c1NCCN1CCOCC1 [SJ000129560]	4.96	
CCOC(=O)c1cnc2c(C)c(Cl)ccc2c1NCCCN1CCOCC1 [SJ000129912]		−23.26
